Tests used:
[1] = Borate dissolution test in 300 mm water column; format: physicochemical; conditions: 0.2 g (0.08 weight %) in 250 ml deionized water, 300 mm column
Description: In this example, different forms of borates were added to columns of water and a swimming pool to determine their comparative dispersion and rate of dissolution characteristics.
Two hundred and fifty (250) ml of deionized water was placed in each of 4 measuring cylinders to give a 300 mm vertical column of water in each cylinder to mimic in small scale the depth of water in a swimming pool. […] The results of the addition were then observed visually and recorded.

[2] = Free chlorine and pH in 2000 gallon swimming pools (Example 6)
Description: In this example, different borates were added to swimming pools, together with a chlorine-based sanitizer, in order to measure pH and free chlorine (CY) levels in the swimming pools over a period it time.
Three substantially identical, 2000 gallon above-ground swimming pools were used for the tests. Each pool was initially filled with approximately 2000 gallons of tap water, and then 500 milliliters of lake water was added to each pool to inoculate the pool water with algae. The testing was conducted during the month of September at a location near Knoxville, Tenn.
In the first pool, approximately 4 pounds of sodium tetraborate was added to the pool water. […] The third pool was used as a control with no form of borate being added to the pool water. The borates in the first and second pools were then allowed to mix overnight.
The following morning, initial pH and chlorine measures were taken for each pool at approximately 9:45 am. Approximately 0.3 pounds of calcium hypochlorate was then added to the water in each of the three swimming pools at approximately 10 am. The pH and chlorine levels in each of the pools were then measured periodically over the course of the day.

algae = test: Algae growth suppression in lake water (Example 4); format: cell-based; conditions: 0.1 weight percent in lake water, two months outside in sun; higher = more algal growth
Description: From this lake sample, three 1 liter glass beakers were each filled with 900 mL of lake water. […] Sodium tetraborate was added to a second beaker to provide a concentration of 0.1 weight percent sodium tetraborate. The third beaker was left as an untreated control. The three samples, which were collected in August, were then left outside, fully exposed to the sun, for a period of two months.
After the two month period, the samples were then visually inspected for algal growth. The samples were also analyzed using a Spectronic Genesys 20 spectrophotometer from Thermo Scientific. This analysis was conducted by testing for absorbance at 330 nm.

O.O.O.O.O=BOB1OB(OB=O)OB2OB([O-])OB([O-])OB(O1)O2.[Na+].[Na+] [disodium octaborate tetrahydrate]
dispersion and dissolution, observed visually [1]: immediately disperse and fully dissolve in a matter of seconds

sodium hexaborate
pH for swimming pool water ([2]; 1:25 pm): 7.2-7.8
pH for swimming pool water ([2]; 2:10 pm): 7.2-7.8
pH for swimming pool water ([2]; 2:50 pm): 7.2-7.8
pH for swimming pool water ([2]; 3:30 pm): 7.2-7.8
pH for swimming pool water ([2]; 4:10 pm): 7.2-7.8
pH for swimming pool water ([2]; 5:00 pm): 7.2-7.8
pH for swimming pool water ([2]; 9:45 am, before calcium hypochlorate addition, 4 pounds borate per 2000 gallons): 7.2-7.8
pH for swimming pool water ([2]; 10:00 am, time of calcium hypochlorate addition): 7.2-7.8
pH for swimming pool water ([2]; 10:55 am): 7.2-7.8
pH for swimming pool water ([2]; 11:15 am): 7.8-8.4
pH for swimming pool water ([2]; 12:00 pm): 7.8-8.4
pH for swimming pool water ([2]; 12:40 pm): 7.8-8.4

O=BOB(O)OB(O)OB=O [Sodium tetraborate, sodium tetraborate]
Absorbance (Abs.) at 330 nm (algae): 0.01 Abs.

OB(O)O [boric acid, reference compound]
dispersion and dissolution, observed visually [1]: mostly float on top of the water and did not completely dissolve
